Consider 26 molecules from patent US20090036422A1 (priority 2007, published 2009).

Counter-ions that a name gives are not always drawn.

The target of the assay is T1, human orexin-2 (hOX2) receptor (Homo sapiens, UniProt O43614).
T1 construct: expressed in transfected cells
T1 sequence (O43614 1-444): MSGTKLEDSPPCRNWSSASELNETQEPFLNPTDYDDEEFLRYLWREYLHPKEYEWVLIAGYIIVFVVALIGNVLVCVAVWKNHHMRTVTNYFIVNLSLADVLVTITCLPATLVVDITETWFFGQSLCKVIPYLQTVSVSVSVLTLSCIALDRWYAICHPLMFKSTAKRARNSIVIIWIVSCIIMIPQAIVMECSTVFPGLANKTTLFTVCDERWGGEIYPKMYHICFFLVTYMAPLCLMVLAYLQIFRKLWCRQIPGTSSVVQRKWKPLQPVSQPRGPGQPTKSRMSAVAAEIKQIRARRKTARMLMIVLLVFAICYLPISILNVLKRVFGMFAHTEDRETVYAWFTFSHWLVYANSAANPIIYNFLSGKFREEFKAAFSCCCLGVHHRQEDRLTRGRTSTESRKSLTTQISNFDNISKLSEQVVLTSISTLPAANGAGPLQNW
Put plainly: Intracellular Ca2+ mobilization assay (FLIPR), CHO(dHFr-) cells expressing hOX2, orexin-A at EC80 as agonist. Particulars: Kb=IC50/(1+[A]/EC50); CHO(dHFr-)-OX2R cells, antagonist applied 25 min before orexin-A EC80. Type of assay: cell-based. On the procedure: Intracellular Ca^2+ Mobilization Assay
The Chinese Hamster Ovary (dHFr−) mutant cell line stably expressing human orexin-1 (hOX1) or human orexin-2 (hOX2) receptors were maintained in Dulbecco's Modified Eagle Medium (1×) with GlutaMax™ 1, 4500 mg/L D-Glucose and Sodium Pyruvate (Catalog No. 31966-021, Invitrogen, Carlsbad, Calif.), 5% dialyzed fetal calf serum (Catalog No. 26400-044), 100 μg/ml penicillin and 100 μg/ml streptomycin. The cells were seeded at 5×10^4 cells/well in the poly-D-lysine treated, 96-well, black/clear-bottomed plates (Catalog No. BD356640, BD Biosciences, Palo Alto, Calif.). 24 h later, the cells were loaded for 1 h at 37° C. with 4 μM Flou-4 acetoxymethyl ester (Catalog No. F-14202, Molecular Probes, Eugene, Oreg.) in FLIPR buffer (1×HBSS, 20 mM HEPES, 2.5 mM Probenecid). Hanks' Balanced Salt Solution (HBSS) (10×) (catalog No. 14065-049) and HEPES (1M) (catalog No. 15630-056) were purchased from Invitrogen, Carlsbad, Calif. Probenecid (250 mM) (catalog No. P8761) was from Sigma, Buchs, Switzerland. The cells were washed five times with FLIPR buffer to remove excess dye and intracellular calcium mobilization, [Ca^2+]i were measured using a Fluorometric Imaging Plate Reader (FLIPR-96, Molecular Devices, Menlo Park, Calif.) as described previously (Malherbe et al., Mol. Pharmacol., 64, 823-832, 2003). Orexin A (catalog No. 1455, Toris Cookson Ltd, Bristol, UK) was used as agonist. Orexin A (50 mM stock solution in DMSO) was diluted in FLIPR buffer +0.1% BSA. The EC50 and EC80 values of orexin-A were measured daily from standard agonist concentration-response curves in CHO(dHFr−) —OX1R and —OX2R cell lines. All compounds were dissolved in 100% DMSO. Inhibition curves were determined by addition of 11 concentrations (0.0001-10 μM) of inhibitory compounds and using EC80 value of orexin-A as agonist (a concentration which gave 80% of max agonist response, determined daily). The antagonists were applied 25 min (incubation at 37° C.) before the application of the agonist. Responses were measured as peak increase in fluorescence minus basal, normalized to the maximal stimulatory effect induced by EC80 value of orexin-A or orexin-B. Inhibition curves were fitted according to the Hill equation: y=100/(1+(x/IC50)^nH), where nH=slope factor using Excel-fit 4 software (Microsoft).
Kb values were calculated according to the following equation Kb=IC50/(1+[A]/EC50) where A is the concentration of agonist added which is very close to agonist EC80 value, and IC50 and EC50 values were derived from the antagonist inhibition and orexin-A or B agonist curves, respectively.
As usually defined, the Kb is the equilibrium dissociation constant of an antagonist, usually derived from a functional assay. Read a high Kb as lower antagonist affinity. In turn, `Cc1ccc(N(CCc2ccc(Cl)cc2F)C(=O)[C@@H](N)c2ccccc2)cc1C` [Example 192, (S)-2-Amino-N-[2-(4-chloro-2-fluoro-phenyl)-ethyl]-N-(3,4-dimethyl-phenyl)-2-phenyl-acetamide; hydrochloride] gave an antagonist equilibrium constant (Kb) of 0.0148 µM. The result for `COc1ccccc1C(N)C(=O)N(CCc1ccc(C(F)(F)F)cc1)c1ccc2c(c1)OC(F)(F)C(F)(F)O2` (centres unmarked) [Example 44, 2-Amino-2-(2-methoxy-phenyl)-N-(2,2,3,3-tetrafluoro-2,3-dihydro-benzo[1,4]dioxin-6-yl)-N-[2-(4-trifluoromethyl-phenyl)-ethyl]-acetamide] reads 0.0069 µM; that for `Cc1ccc(CCN(C(=O)[C@@H](NC(=O)[C@H](C)N)c2ccccc2)c2ccc(C)c(C)c2)cc1` [Example 251, (S)-2-Amino-N-{(S)-[(3,4-dimethyl-phenyl)-(2-p-tolyl-ethyl)-carbamoyl]-phenyl-methyl}-propionamide], 0.0102 µM; that for `COc1cccc(N(CCc2ccc(C(F)(F)F)cc2)C(=O)[C@@H](N)c2ccccc2)c1` [Example 151, (S)-2-Amino-N-(3-methoxy-phenyl)-2-phenyl-N-[2-(4-trifluoromethyl-phenyl)-ethyl]-acetamide], 0.0112 µM. The result for `Cc1ccc(N(CCc2ccc(OC(F)F)cc2)C(=O)[C@@H](N)c2ccccc2)cc1C` [Example 210, (S)-2-Amino-N-[2-(4-difluoromethoxy-phenyl)-ethyl]-N-(3,4-dimethyl-phenyl)-2-phenyl-acetamide hydrochloride] reads 0.0077 µM; that for `COc1ccc(N(CCc2ccc(C(F)(F)F)cc2)C(=O)C(N)c2ccccc2OC)cc1Cl` (centres unmarked) [Example 43, 2-Amino-N-(3-chloro-4-methoxy-phenyl)-2-(2-methoxy-phenyl)-N-[2-(4-trifluoromethyl-phenyl)-ethyl]-acetamide], 0.0162 µM; that for `COc1ccc(C(O)C(=O)N(CCc2ccc(C(F)(F)F)cc2)c2ccc(OC)c(OC)c2)cc1O` (centres unmarked) [Example 27, N-(3,4-dimethoxyphenyl)-2-hydroxy-2-(3-hydroxy-4-methoxyphenyl)-N-{2-[4-(trifluoromethyl)phenyl]ethyl}acetamide], 0.0737 µM. The result for `COc1ccc(Cl)c(N(CCc2ccc(C(F)(F)F)cc2)C(=O)C(N)c2ccccc2)c1` (centres unmarked) [Example 110, 2-Amino-N-(2-chloro-5-methoxy-phenyl)-2-phenyl-N-[2-(4-trifluoromethyl-phenyl)-ethyl]-acetamide] reads 0.0335 µM; that for `COc1cccc(N(CCc2ccc(C(F)(F)F)cc2)C(=O)[C@@H](N)c2ccc(F)cc2)c1` [Example 160], 0.0291 µM. `COc1ccc(N(CCc2ccc(C(F)(F)F)cc2)C(=O)C(N)c2ccccc2OC)cc1F` (centres unmarked) [Example 42] came in with a Kb of 0.0559 µM. The result for `COc1ccc(N(CCc2ccc(C(F)(F)F)cc2)C(=O)C(N)c2ccccc2OC)cc1OC` (centres unmarked) [Example 35, 2-Amino-N-(3,4-dimethoxy-phenyl)-2-(2-methoxy-phenyl)-N-[2-(4-trifluoromethyl-phenyl)-ethyl]-acetamide] reads 0.0088 µM; that for `COc1ccc(N(CCc2ccc(C(F)(F)F)cc2)C(=O)C(N)c2ccccc2)cc1` (centres unmarked) [Example 75, 2-Amino-N-(4-methoxy-phenyl)-2-phenyl-N-[2-(4-trifluoromethyl-phenyl)-ethyl]-acetamide], 0.0523 µM. To `Cc1ccc(CCN(C(=O)C(NCC2CCCO2)c2ccccc2)c2ccc(C)c(C)c2)cc1` (centres unmarked) [Example 127, N-(3,4-Dimethyl-phenyl)-2-phenyl-2-[(tetrahydro-furan-2-ylmethyl)-amino]-N-(2-p-tolyl-ethyl)-acetamide] belongs 0.0222 µM. The result for `CCOC(C(=O)N(CCc1ccc(C(F)(F)F)cc1)c1ccc(C)c(C)c1)c1ccccc1` (racemic) [Example 221, (R,S)—N-(3,4-Dimethyl-phenyl)-2-ethoxy-2-phenyl-N-[2-(4-trifluoromethyl-phenyl)-ethyl]-acetamide] reads 0.0834 µM; that for `Cc1ccc(N(CCc2ccc(F)c(F)c2)C(=O)[C@@H](N)c2ccccc2)cc1C` [Example 189, (S)-2-Amino-N-[2-(3,4-difluoro-phenyl)-ethyl]-N-(3,4-dimethyl-phenyl)-2-phenyl-acetamide hydrochloride], 0.0071 µM; that for `COc1ccccc1CCN(C(=O)[C@@H](N)c1ccccc1)c1ccc(C)c(C)c1` [Example 194, (S)-2-Amino-N-(3,4-dimethyl-phenyl)-N-[2-(2-methoxy-phenyl)-ethyl]-2-phenyl-acetamide hydrochloride], 0.0052 µM.

Molecule `COc1ccc(C)c(N(CCc2ccc(C(F)(F)F)cc2)C(=O)C(N)c2ccccc2)c1` (centres unmarked) [Example 59, 2-Amino-N-(5-methoxy-2-methyl-phenyl)-2-phenyl-N-[2-(4-trifluoromethyl-phenyl)-ethyl]-acetamide] had a Kb of 0.0143 µM.

The molecule `Cc1ccc(CCN(C(=O)C(NCC(C)O)c2ccccc2)c2ccc(C)c(C)c2)cc1` (centres unmarked) [Example 121, N-(3,4-Dimethyl-phenyl)-2-(2-hydroxy-propylamino)-2-phenyl-N-(2-p-tolyl-ethyl)-acetamide] had an antagonist dissociation constant (Kb) of 0.0109 µM. In turn, `COc1ccc(N(CCc2ccc(C(F)(F)F)cc2)C(=O)C(N)c2cccc(F)c2)cc1OC` (centres unmarked) [Example 85, 2-Amino-N-(3,4-dimethoxy-phenyl)-2-(3-fluoro-phenyl)-N-[2-(4-trifluoromethyl-phenyl)-ethyl]-acetamide] had a Kb of 0.0074 µM. To `CCOCCNC(C(=O)N(CCc1ccc(C)cc1)c1ccc(C)c(C)c1)c1ccccc1` (centres unmarked) [Example 136, N-(3,4-Dimethyl-phenyl)-2-(2-ethoxy-ethylamino)-2-phenyl-N-(2-p-tolyl-ethyl)-acetamide] belongs 0.0201 µM; to `NC(C(=O)N(CCc1ccc(C(F)(F)F)cc1)c1ccc2c(c1)CCCC2)c1ccccc1` (centres unmarked) [Example 137, 2-Amino-2-phenyl-N-(5,6,7,8-tetrahydro-naphthalen-2-yl)-N-[2-(4-trifluoromethyl-phenyl)-ethyl]-acetamide], 0.0364 µM. The result for `CN[C@H](C(=O)N(CCc1ccc(C(F)(F)F)cc1)c1ccc(C)c(C)c1)c1ccccc1OC` [Example 157, (S)—N-(3,4-Dimethyl-phenyl)-2-(2-methoxy-phenyl)-2-methylamino-N-[2-(4-trifluoromethyl-phenyl)-ethyl]-acetamide] reads 0.0322 µM; that for `COc1cc(N(CCc2ccc(C(F)(F)F)cc2)C(=O)C(N)c2ccccc2)ccc1F` (centres unmarked) [Example 104, 2-Amino-N-(4-fluoro-3-methoxy-phenyl)-2-phenyl-N-[2-(4-trifluoromethyl-phenyl)-ethyl]-acetamide], 0.022 µM. The result for `CNC(C(=O)N(CCc1ccc(C(F)(F)F)cc1)c1ccc(OC)c(OC)c1)c1ccccc1OC` (centres unmarked) [Example 34, N-(3,4-Dimethoxy-phenyl)-2-(2-methoxy-phenyl)-2-methylamino-N-[2-(4-trifluoromethyl-phenyl)-ethyl]-acetamide] reads 0.027 µM. As for `Cc1ccc(N(CCc2ccc(F)cc2)C(=O)[C@@H](N)c2ccccc2)cc1C` [Example 175, (S)-2-Amino-N-(3,4-dimethyl-phenyl)-N-[2-(4-fluoro-phenyl)-ethyl]-2-phenyl-acetamide], the antagonist equilibrium constant (Kb) came to 0.0219 µM.

For `Cc1ccc(N(CCc2ccc(C(F)(F)F)cc2)C(=O)[C@@H](N)c2ccccc2)cc1` [Example 146, (S)-2-Amino-2-phenyl-N-p-tolyl-N-[2-(4-trifluoromethyl-phenyl)-ethyl]-acetamide], the Kb is 0.0335 µM.
